How the values were obtained:
[1] = system: V. mimicus 04–14 isolate adhesion to EPC cells; experiment: Peptide adhesion inhibition test: V. mimicus adhesion to EPC cells; format: cell-based, Vibrio mimicus; details: 500 μg/mL peptide mixed with equal volume of V. mimicus 04–14 (2 × 10^7 CFU/mL), 1 h 28°C, then 1 h on EPC cells, crystal violet, 30 cells counted, mean ± SD, triplicate
Protocol: When EPC cells grown in 24-well plate containing coverslips formed a confluent monolayer, the medium was changed to RPMI-1640 medium without serum and antibiotics for 2 h. Subsequently, 500 μg/mL of each OmpU-binding peptide or unrelated control peptide solution were respectively mixed with an equal volume of V. mimicus isolate 04–14 suspension (2 × 10^7 CFU/mL) and incubated for 1 h at 28°C. The mixture was added to each well, and then the plates were incubated for 1 h at 28°C. After 3 times washes, EPC cells were fixed with cooled methanol for 10 min, stained with crystal violet and examined under a light microscope at a magnification of ×1,000. Thirty cells were randomly selected to count the number of adhering bacterial per slide. Each experiment was performed in triplicate, with each sample being repeated in 3 cell wells.

[2] = system: rOmpU fusion protein adhesion to EPC cells; experiment: Fluorescence-based adhesion assay: rOmpU protein adhesion to EPC cells; format: cell-based, Vibrio mimicus; details: 500 μg/mL peptide mixed with equal volume of 500 μg/mL rOmpU, 1 h 28°C, then 1 h on fixed EPC cells; anti-OmpU/FITC immunofluorescence; triplicate
Protocol: Synthetic OmpU-binding peptides were measure for their ability to antagonize OmpU protein adhesion to EPC cells by fluorescence-based adhesion assay. Briefly, EPC cells (1 × 10^6 cells/mL) were seeded in 24-well cell plate containing coverslip (Corning, NY, USA) and cultured to 80% confluence. The cells were gently washed 3 times with PBS and fixed with 4% paraformaldehyde at room temperature for 15 min. After 3 washes with PBS, cells were permeabilized with 0.5% Triton X-100 (500 μL/well) for 15 min. The cells were then washed 3 times with PBS and blocked with 2% BSA for 30 min. Subsequently, 500 μg/mL of each OmpU-binding peptide or irrelevant control peptide (used as negative control) solution were respectively mixed with an equal volume of 500 μg/mL rOmpU fusion protein, and the mixture was incubated for 1 h at 28°C and added to each well. The plates were incubated for 1 h at 28°C. After 3 washes, purified rabbit anti-OmpU antibody (prepared in our previous studies) at a dilution of 1:200 in PBS was added to each well and incubated for 1 h at 28°C, followed by 3 washes in PBS. A 1:100 dilution of FITC (fluorescein isothiocyanate)-labeled goat anti-rabbit IgG (Jackson ImmunoResearch Laboratories, Inc., USA) was added to each well and incubated in the dark for 1 h. After 3 washes in PBS, 4,6-Diamidino-2-phenylindole dihydrochloride (DAPI; Ziyi Reagent Co., Shanghai, China) was used to stain the nucleus, and the coverslips were observed under a fluorescence microscope. Each experiment was performed in triplicate, each sample being tested in three wells.

TGYICDEMFCKL [P3]
average number of adhesion around each cell [1]: 20.2 ± 0.5
green fluorescence on the surface of EPC cells (surface-retained rOmpU) [2]: Obvious green fluorescence
